Source: US20100137239A1, “GEMCITABINE COMBINATION THERAPY” (GLOUCESTER PHARMACEUTICALS, priority 2006, published 2010)
“And” between values parts separate entries of the source, which are not always exact repeats. Equal entries are not always repeated. “Also recorded” adds a separate entry of the source.

Legend:
[1] = PANC-1 study: animal weight and drug toxicity
Text: (§1) Model Information—Female nude mice (nu/nu) between 5 and 6 weeks of age weighing approximately 20 grams were obtained from Harlan, Inc. (Madison, Wis.). PANC-1, obtained from the ATCC, is a pancreas tumor cell line originating from a person^(1-2). BxPC-3, obtained from the American Type Culture Collection (ATCC), is a pancreas tumor cell line originating from a person^(3-4). PANC-1 Study: Animals were implanted subcutaneously (SC) by trocar with fragments of PANC-1 harvested from SC growing tumors in nude mice hosts. When tumors grew to approximately 135 cubic millimeters (mm^3) in size (17 days following implantation, animals were pair-matched by tumor size into treatment and control groups; each treatment group contained nine mice. BxPC-3 Study: Animals were implanted subcutaneously (SC) by trocar with fragments of BxPC-3 harvested from SC growing tumors in nude mice hosts. When tumors grew to approximately 85 cubic millimeters (mm^3) in size (19 days following implantation), animals were pair-matched by tumor size into treatment and control groups; each treatment group contained nine mice. Animals in both studies were ear-tagged and followed individually throughout the experiment.
(§2) Study Design and Dosing—Initial doses were administered on Day 1 following pair-matching; both experiments were carried out as tumor growth inhibition (TGT) studies. Animals were dosed intravenously (IV) via tail vein with FK228 once every four days for three treatments (Q4Dx3) or by intraperitoneal (IP) injection with gemcitabine once every three days for four treatments (Q3Dx4), either alone or in combination, at the doses listed below (Table 1). To serve as a negative control, FK228 vehicle (2% ethanol, 8% propylene glycol, 90% 0.9% saline) was injected on a Q4Dx3 schedule.
(§3) Animal Weights—Individual and group mean weights ±SD and percent weight change through Day 25 (PANC-1) or Day 29 (BxPC-3) were recorded twice weekly until study completion beginning Day 1. Final group mean weights ±SD and group nadir values are reported; weight data from individual animals experiencing technical or drug-related deaths was censored from final group calculations.
(§4) Moribundity/Mortality—Animals were observed twice weekly for general moribundity and daily for mortality. Animal deaths were assessed as drug-related or technical based on factors including gross observation and weight loss; reported animal death information includes type, number, and day of death for each group.
(§5) Statistics—Statistical analyses were carried out between treated and control groups comparing final weight, percent weight change, and tumor growth inhibition (Appendix III). For these groups, a two-tailed One-Way Analysis of Variance (ANOVA) followed by the Dunnett multiple comparisons test was employed. All analyses are performed using GraphPad Prism® software (version 4.0). Weight and tumor data from individual animals experiencing technical or drug-related deaths was censored from analysis.

c-Myc = assay: Immunoblot of c-Myc in PANC-1 xenograft tumors after treatment; format: in vivo, human; settings: FK228 5 mg/kg Q4Dx3; gemcitabine 80 mg/kg Q3Dx4; tumors at study completion; actin-normalized, vs controls
Method: (§6) Abstract: To examine activity and mechanism of FK228, antitumor efficacy was tested in PANC-1 pancreatic adenocarcinoma model representing transformed Ras, either as a single agent or in combination with gemcitabine. Following PANC-1 study completion, tumor and sera were obtained from: • the vehicle control; • FK228 dosed at 5 mg/kg once every four days for three treatments (Q4Dx3); • Gemcitabine at 80 mg/kg (Q3Dx4); and • the drug combination. Expression of c-Myc, acetylated histones 3 and 4, and p21^waf1 was compared between control and FK228 groups by immunoblotting and was quantified following actin normalization. Serum levels of putative tumor products b-FGF and MMP-2 were quantified by human-specific ELISA. […]
(§7) Tissue Biomarkers: Tumor levels of acetylated histone-4, histone-4, c-Myc, p21waf and β-actin were quantified by immunoblotting as described. […] The chemiluminescence signal was captured by autoradiography, quantified by densitometry and expressed as a ratio of actin in each sample lane. For each biomarker, means and standard errors were calculated in each treatment group. […]
(§8) Expression of c-Myc, acetylated histones 3 and 4, and p21^waf1 was compared between control and FK228 groups by immunoblotting and was quantified following actin normalization. Serum levels of putative tumor products b-FGF and MMP-2 were quantified by human-specific ELISA. […]

[2] = BxPC-3 study: animal weight and drug toxicity
Text: as §1, §2, §3, §4, §5

p21^waf = assay: Immunoblot of p21^waf in PANC-1 xenograft tumors; format: in vivo, human; settings: FK228 5 mg/kg Q4Dx3; gemcitabine 80 mg/kg Q3Dx4; tumors at study completion; vs controls
Method: as §6, §7, §8

[3] = FK228 2.5 mg/kg IV Q4Dx3, 2.5 mg/kg
[4] = FK228 5 mg/kg IV Q4Dx3, 5 mg/kg

## C/C=C1\NC(=O)[C@H]2CSSCC/C=C/[C@H](CC(=O)N[C@H](C(C)C)C(=O)N2)OC(=O)[C@H](C(C)C)NC1=O [FK228, romidepsin]
[1]; FK228 2.5 mg/kg IV Q4Dx3
  FINAL WEIGHT (DAY 25) % CHANGE: +8%
  WEIGHT NADIR % CHANGE: −9%
  WEIGHT NADIR DAY: 11
[1]; [3]
  DRUG DEATHS TOTAL: 0/9 and 0
  FINAL WEIGHT (DAY 25) MEAN(G) ± SD: 21 ± 2 G
[1]; FK228 5 mg/kg IV Q4Dx3
  FINAL WEIGHT (DAY 25) % CHANGE: +9%
  WEIGHT NADIR % CHANGE: −12%
  WEIGHT NADIR DAY: 11
[1]; [4]
  DRUG DEATHS TOTAL: 0/9 and 0
  FINAL WEIGHT (DAY 25) MEAN(G) ± SD: 25±2 G
c-Myc
  inhibition of c-Myc expression: 50%
[2]; FK228 2.5 mg/kg IV Q4Dx3
  FINAL WEIGHT (DAY 29) % CHANGE: +10%
  WEIGHT NADIR % CHANGE: −5%
  WEIGHT NADIR DAY: 11
[2]; [3]
  DRUG DEATHS TOTAL: 0/9 and 0
  FINAL WEIGHT (DAY 29) MEAN(G) ± SD: 25±2 G
[2]; FK228 5 mg/kg IV Q4Dx3
  FINAL WEIGHT (DAY 29) % CHANGE: +7%
  WEIGHT NADIR % CHANGE: −15%
  WEIGHT NADIR DAY: 11
[2]; [4]
  DRUG DEATHS TOTAL: 0/9 and 0
  FINAL WEIGHT (DAY 29) MEAN(G) ± SD: 24±1 G

## Nc1ccn([C@@H]2O[C@H](CO)[C@@H](O)C2(F)F)c(=O)n1 [Gemcitabine, gemcitabine]
[1]; Gemcitabine 40 mg/kg IP Q3Dx4
  DRUG DEATHS TOTAL: 0/9 and 0
  FINAL WEIGHT (DAY 25) % CHANGE: +7%
  FINAL WEIGHT (DAY 25) MEAN(G) ± SD: 24±1 G
  WEIGHT NADIR % CHANGE: −2%
  WEIGHT NADIR DAY: 11
[1]; Gemcitabine 80 mg/kg IP Q3Dx4
  DRUG DEATHS TOTAL: 0/9 and 0
  FINAL WEIGHT (DAY 25) % CHANGE: +12%
  FINAL WEIGHT (DAY 25) MEAN(G) ± SD: 26±3 G
  WEIGHT NADIR % CHANGE: −3%
  WEIGHT NADIR DAY: 11
p21^waf
  p21^waf expression: downregulated; also recorded: down-regulated
c-Myc
  inhibition of c-Myc expression: 50%
[2]; Gemcitabine 40 mg/kg IP Q3Dx4
  DRUG DEATHS TOTAL: 0/9 and 0
  FINAL WEIGHT (DAY 29) % CHANGE: +9%
  weight loss (nadir): No weight loss
[2]; Gemcitabine 80 mg/kg IP Q3Dx4
  DRUG DEATHS TOTAL: 0/9 and 0
  FINAL WEIGHT (DAY 29) % CHANGE: +1%
  FINAL WEIGHT (DAY 29) MEAN(G) ± SD: 22±4 G and 22 + 4 G
  WEIGHT NADIR % CHANGE: −9%
  WEIGHT NADIR DAY: 11
